This is an account of results in ChEMBL document CHEMBL5678818, “Discovery of potent SOS1 inhibitors that block RAS activation via disruption of the RAS-SOS1 interaction” (Proc Natl Acad Sci U S A, 2019).

Structures are written as SMILES.

Assay [1] concerns the target Cyclin-dependent kinase 4 (Homo sapiens) (UniProt P11802). Kind of assay: Inhibition of CDK4 (unknown origin) assessed as residual activity at 1000 nM by KINOMEscan analysis relative to control.
Assay [2] concerns the target Serine/threonine-protein kinase PAK 2 (Homo sapiens) (UniProt Q13177). The experiment in a line: Inhibition of PAK2 (unknown origin) assessed as residual activity at 100 nM by KINOMEscan analysis relative to control.
Assay [3] has as its target T1, Serine/threonine-protein kinase RIO3 (Homo sapiens) (UniProt O14730).
T1 sequence (whole entry): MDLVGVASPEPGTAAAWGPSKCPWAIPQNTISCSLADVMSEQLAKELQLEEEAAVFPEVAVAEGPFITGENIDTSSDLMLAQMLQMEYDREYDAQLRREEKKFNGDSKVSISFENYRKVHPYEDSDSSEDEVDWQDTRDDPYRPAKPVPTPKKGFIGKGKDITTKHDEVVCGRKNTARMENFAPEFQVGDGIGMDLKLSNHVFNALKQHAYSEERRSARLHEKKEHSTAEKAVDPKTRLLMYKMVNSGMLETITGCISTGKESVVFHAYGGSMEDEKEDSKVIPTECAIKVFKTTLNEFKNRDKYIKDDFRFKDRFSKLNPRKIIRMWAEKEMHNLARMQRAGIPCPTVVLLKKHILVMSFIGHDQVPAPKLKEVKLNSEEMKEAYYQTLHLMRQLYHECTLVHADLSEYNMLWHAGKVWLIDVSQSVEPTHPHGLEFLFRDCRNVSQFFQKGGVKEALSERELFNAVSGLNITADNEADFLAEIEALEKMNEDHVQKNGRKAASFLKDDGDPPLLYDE
The experiment in a line: Inhibition of RIOK3 (unknown origin) assessed as residual activity at 100 nM by KINOMEscan analysis relative to control.

Assay [4] addresses Cyclin-dependent kinase 7 (Homo sapiens) (UniProt P50613). Kind of assay: Inhibition of CDK7 (unknown origin) assessed as residual activity at 100 nM by KINOMEscan analysis relative to control.
Assay [5] addresses T2, Dual specificity mitogen-activated protein kinase kinase 7 (Homo sapiens) (UniProt O14733).
T2 sequence (whole entry): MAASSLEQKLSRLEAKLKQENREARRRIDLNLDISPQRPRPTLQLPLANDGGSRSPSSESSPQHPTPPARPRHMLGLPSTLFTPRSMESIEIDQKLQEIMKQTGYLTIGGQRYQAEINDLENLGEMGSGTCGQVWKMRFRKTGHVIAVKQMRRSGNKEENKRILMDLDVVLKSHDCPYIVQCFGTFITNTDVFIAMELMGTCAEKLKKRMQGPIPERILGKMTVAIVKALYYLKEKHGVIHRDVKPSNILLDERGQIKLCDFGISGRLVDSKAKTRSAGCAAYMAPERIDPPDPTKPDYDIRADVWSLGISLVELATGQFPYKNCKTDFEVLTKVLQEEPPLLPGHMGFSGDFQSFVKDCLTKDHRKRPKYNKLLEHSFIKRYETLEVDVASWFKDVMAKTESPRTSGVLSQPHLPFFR
The experiment in a line: Inhibition of MKK7 (unknown origin) assessed as residual activity at 100 nM by KINOMEscan analysis relative to control.

In assay [6] the target is CDK4/Cyclin D3 (Homo sapiens) (UniProt P11802+P30281). The experiment in a line: Inhibition of CDK4-cyclin D3 (unknown origin) assessed as residual activity at 100 nM by KINOMEscan analysis relative to control. In kind it is protein-complex assay.
Assay [7] deals with Calcium-dependent protein kinase 1 (Plasmodium falciparum) (UniProt P62344). Kind of assay: Inhibition of Plasmodium falciparum CDPK1 assessed as residual activity at 100 nM by KINOMEscan analysis relative to control.
For assay [8], the system named is ALK tyrosine kinase receptor (Homo sapiens), Q9UM73 [L1196M]. Kind of assay: Inhibition of ALK L1196M mutant (unknown origin) assessed as residual activity at 100 nM by KINOMEscan analysis relative to control.
In assay [9] the target is Calcium/calmodulin-dependent protein kinase type II subunit gamma (Homo sapiens) (UniProt Q13555). Kind of assay: Inhibition of CAMK2G (unknown origin) assessed as residual activity at 100 nM by KINOMEscan analysis relative to control.
For assay [10], the target named is T3, MAP kinase-activated protein kinase 5 (Homo sapiens) (UniProt Q8IW41).
T3 sequence (whole entry): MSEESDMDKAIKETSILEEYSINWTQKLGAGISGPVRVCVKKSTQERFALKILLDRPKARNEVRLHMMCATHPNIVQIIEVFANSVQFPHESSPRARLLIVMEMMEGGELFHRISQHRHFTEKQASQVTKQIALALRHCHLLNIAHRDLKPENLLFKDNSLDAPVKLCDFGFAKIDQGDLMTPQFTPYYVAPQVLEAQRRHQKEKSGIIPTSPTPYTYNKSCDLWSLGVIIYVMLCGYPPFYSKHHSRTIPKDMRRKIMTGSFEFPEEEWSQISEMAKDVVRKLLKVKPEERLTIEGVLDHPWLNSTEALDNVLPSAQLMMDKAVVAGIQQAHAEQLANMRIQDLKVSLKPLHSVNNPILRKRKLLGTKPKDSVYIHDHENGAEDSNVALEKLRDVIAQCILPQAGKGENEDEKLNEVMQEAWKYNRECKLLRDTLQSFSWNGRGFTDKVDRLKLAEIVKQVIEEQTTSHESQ
The experiment in a line: Inhibition of MAPKAPK5 (unknown origin) assessed as residual activity at 100 nM by KINOMEscan analysis relative to control.

Assay [11] addresses Protein kinase C theta type (Homo sapiens) (UniProt Q04759). Kind of assay: Inhibition of PRKCQ (unknown origin) assessed as residual activity at 100 nM by KINOMEscan analysis relative to control.
Assay [12] deals with Myosin light chain kinase 3 (Homo sapiens) (UniProt Q32MK0). Kind of assay: Inhibition of MLCK (unknown origin) assessed as residual activity at 100 nM by KINOMEscan analysis relative to control.
The subject of assay [13] is Tyrosine-protein kinase ABL1 (Homo sapiens), P00519 [T315I]. The experiment in a line: Inhibition of phosphorylated ABL1 T315I mutant (unknown origin) assessed as residual activity at 100 nM by KINOMEscan analysis relative to control.
The target in assay [14] is Insulin receptor-related protein (Homo sapiens) (UniProt P14616). The experiment in a line: Inhibition of INSRR (unknown origin) assessed as residual activity at 100 nM by KINOMEscan analysis relative to control.
Assay [15] has as its target Receptor-interacting serine/threonine-protein kinase 2 (Homo sapiens) (UniProt O43353). Kind of assay: Inhibition of RIPK2 (unknown origin) assessed as residual activity at 100 nM by KINOMEscan analysis relative to control.
The test system of assay [16] is Tyrosine-protein kinase ABL1 (Homo sapiens), P00519 [Y253F]. The experiment in a line: Inhibition of phosphorylated ABL1 Y253F mutant (unknown origin) assessed as residual activity at 100 nM by KINOMEscan analysis relative to control.
In assay [17] the target is Proto-oncogene tyrosine-protein kinase receptor Ret (Homo sapiens) (UniProt P07949). The experiment in a line: Inhibition of RET (unknown origin) assessed as residual activity at 100 nM by KINOMEscan analysis relative to control.

Sequence of Insulin receptor-related protein (Homo sapiens) (P14616 27-742 limits assumed): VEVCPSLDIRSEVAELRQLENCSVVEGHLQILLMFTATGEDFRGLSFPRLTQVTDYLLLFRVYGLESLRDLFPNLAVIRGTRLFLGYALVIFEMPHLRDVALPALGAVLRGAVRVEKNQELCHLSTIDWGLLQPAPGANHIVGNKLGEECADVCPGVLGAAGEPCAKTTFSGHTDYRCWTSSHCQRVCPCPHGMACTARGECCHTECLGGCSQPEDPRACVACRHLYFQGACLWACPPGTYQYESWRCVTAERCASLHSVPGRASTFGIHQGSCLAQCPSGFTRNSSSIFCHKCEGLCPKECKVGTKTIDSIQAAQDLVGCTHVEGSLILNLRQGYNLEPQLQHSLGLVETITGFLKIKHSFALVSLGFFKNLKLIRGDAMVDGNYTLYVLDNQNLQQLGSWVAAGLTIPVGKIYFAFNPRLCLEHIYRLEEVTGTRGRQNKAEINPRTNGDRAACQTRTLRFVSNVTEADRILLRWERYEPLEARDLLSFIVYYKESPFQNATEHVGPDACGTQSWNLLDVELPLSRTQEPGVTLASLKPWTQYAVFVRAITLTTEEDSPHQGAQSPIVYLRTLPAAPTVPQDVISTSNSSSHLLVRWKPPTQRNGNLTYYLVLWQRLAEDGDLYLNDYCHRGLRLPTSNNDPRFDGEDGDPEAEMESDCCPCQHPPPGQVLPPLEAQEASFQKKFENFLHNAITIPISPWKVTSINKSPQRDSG
Sequence of Insulin receptor-related protein (Homo sapiens) (P14616 747-1297 limits assumed): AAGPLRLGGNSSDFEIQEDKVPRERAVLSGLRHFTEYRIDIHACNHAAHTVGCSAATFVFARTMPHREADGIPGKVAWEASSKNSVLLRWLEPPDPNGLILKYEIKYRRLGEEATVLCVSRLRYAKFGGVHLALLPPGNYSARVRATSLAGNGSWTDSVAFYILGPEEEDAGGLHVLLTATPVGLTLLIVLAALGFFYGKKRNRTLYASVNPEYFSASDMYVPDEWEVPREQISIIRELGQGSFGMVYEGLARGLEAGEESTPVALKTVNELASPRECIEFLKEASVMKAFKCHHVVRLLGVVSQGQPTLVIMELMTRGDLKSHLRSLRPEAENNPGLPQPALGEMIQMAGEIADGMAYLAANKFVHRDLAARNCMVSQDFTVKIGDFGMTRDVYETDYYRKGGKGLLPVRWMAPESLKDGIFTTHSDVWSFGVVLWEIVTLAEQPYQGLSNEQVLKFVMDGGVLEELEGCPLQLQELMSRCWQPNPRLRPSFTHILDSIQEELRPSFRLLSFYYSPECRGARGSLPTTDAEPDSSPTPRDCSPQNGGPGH
Sequence of Protein kinase C theta type (Homo sapiens) (Q04759 whole entry, looked up): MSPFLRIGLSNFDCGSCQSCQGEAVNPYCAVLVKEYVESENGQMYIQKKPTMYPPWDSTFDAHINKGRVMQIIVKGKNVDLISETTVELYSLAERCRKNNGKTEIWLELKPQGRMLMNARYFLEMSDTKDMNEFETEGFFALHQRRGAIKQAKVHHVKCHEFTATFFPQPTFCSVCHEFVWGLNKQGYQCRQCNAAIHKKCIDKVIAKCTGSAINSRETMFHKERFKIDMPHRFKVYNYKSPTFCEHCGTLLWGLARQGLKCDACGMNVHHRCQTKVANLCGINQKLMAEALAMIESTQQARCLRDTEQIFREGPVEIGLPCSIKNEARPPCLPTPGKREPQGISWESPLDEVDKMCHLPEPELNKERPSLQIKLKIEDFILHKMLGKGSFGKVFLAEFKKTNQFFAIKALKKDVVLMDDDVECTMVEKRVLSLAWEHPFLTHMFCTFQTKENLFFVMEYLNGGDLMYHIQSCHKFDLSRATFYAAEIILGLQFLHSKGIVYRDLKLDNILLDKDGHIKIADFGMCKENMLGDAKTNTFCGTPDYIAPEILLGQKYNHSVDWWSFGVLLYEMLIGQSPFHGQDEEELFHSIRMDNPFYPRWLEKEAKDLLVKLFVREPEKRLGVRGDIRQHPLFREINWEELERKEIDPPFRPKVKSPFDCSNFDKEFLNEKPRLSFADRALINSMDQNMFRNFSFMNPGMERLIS
Sequence of Cyclin-dependent kinase 4 (Homo sapiens) (P11802 whole entry): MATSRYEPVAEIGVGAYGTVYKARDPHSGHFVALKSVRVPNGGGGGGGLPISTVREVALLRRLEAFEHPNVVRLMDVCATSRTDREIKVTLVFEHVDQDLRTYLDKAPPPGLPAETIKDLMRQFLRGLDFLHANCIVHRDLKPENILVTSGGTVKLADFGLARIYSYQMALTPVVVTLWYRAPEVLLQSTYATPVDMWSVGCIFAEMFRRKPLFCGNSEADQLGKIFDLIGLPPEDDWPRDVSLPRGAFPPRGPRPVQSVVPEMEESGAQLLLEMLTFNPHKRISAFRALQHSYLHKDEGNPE
Sequence of Serine/threonine-protein kinase PAK 2 (Homo sapiens) (Q13177 whole entry): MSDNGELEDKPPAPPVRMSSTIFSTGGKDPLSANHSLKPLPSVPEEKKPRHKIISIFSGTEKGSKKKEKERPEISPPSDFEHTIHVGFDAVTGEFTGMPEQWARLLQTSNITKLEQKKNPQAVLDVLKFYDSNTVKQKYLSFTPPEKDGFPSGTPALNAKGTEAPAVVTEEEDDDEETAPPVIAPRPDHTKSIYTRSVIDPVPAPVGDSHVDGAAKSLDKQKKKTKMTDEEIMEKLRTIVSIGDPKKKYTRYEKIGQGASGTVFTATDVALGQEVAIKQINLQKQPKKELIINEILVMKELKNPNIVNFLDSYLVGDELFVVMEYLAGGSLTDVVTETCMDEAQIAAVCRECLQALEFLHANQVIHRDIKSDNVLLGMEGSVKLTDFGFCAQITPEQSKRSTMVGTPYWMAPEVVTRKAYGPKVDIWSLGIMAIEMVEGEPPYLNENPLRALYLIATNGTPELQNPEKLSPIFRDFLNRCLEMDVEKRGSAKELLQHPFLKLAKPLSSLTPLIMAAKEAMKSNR
Sequence of ALK tyrosine kinase receptor (Homo sapiens), Q9UM73 [L1196M] (Q9UM73 whole entry L1196M, looked up): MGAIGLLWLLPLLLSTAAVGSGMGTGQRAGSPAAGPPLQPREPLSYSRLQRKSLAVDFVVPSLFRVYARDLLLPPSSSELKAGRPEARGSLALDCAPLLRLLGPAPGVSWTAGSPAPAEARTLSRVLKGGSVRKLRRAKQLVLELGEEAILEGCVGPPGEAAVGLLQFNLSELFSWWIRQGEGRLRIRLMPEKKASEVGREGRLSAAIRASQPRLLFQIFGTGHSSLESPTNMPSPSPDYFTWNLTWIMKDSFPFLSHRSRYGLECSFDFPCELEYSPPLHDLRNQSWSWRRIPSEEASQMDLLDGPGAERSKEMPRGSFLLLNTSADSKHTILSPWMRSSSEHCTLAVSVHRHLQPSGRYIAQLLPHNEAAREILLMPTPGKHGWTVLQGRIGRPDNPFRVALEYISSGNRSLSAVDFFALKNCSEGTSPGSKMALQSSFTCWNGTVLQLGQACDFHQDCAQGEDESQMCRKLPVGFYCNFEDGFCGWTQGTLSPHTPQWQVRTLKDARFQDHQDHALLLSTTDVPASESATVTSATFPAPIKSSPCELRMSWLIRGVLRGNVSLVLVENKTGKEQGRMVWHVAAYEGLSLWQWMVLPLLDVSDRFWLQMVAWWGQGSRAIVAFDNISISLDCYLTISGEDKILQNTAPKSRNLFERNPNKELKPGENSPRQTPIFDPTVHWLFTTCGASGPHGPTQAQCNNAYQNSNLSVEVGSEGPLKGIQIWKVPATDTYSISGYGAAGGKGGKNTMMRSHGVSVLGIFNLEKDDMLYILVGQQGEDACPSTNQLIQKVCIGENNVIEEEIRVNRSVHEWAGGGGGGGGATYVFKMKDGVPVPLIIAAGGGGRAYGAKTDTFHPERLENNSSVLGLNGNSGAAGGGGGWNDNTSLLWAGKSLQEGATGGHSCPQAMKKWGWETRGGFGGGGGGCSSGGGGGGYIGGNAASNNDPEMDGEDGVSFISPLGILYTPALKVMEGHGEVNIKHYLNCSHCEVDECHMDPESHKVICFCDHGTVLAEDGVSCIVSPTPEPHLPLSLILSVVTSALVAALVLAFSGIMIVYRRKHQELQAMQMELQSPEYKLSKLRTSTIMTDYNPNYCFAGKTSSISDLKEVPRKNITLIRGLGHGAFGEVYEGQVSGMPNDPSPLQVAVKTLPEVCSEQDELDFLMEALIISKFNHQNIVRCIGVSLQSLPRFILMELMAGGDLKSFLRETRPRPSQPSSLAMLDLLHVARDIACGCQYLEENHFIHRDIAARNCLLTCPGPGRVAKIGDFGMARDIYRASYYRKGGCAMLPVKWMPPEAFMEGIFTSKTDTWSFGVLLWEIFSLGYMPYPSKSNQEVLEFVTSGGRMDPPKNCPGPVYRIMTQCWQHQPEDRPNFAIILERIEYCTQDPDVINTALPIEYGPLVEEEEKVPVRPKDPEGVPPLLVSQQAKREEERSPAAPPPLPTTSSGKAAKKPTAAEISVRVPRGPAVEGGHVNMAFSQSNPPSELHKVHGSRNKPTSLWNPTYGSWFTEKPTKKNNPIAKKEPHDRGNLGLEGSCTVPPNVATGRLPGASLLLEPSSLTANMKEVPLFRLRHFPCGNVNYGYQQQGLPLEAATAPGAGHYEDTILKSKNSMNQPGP
Sequence of Calcium/calmodulin-dependent protein kinase type II subunit gamma (Homo sapiens) (Q13555 whole entry): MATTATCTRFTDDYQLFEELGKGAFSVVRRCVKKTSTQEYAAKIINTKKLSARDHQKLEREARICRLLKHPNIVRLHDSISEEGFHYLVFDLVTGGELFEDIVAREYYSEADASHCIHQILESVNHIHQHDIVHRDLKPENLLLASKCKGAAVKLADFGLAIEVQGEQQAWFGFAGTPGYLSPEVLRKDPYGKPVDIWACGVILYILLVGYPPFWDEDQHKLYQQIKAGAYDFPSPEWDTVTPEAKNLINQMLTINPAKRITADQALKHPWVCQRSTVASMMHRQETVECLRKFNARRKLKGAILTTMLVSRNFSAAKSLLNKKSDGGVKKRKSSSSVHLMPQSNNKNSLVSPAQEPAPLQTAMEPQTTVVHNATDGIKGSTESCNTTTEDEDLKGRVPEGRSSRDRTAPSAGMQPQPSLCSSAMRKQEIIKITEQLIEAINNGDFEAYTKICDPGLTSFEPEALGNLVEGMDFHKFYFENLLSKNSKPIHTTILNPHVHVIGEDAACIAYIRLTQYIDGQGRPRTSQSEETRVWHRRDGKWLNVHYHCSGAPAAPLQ

Consider `COc1cc2nc(C)nc(N[C@H](C)c3cccc(-c4cn[nH]c4)c3)c2cc1OC`, for which the Activity in assay [1] was found to be 92%.

As for `COc1cc2ncnc(N[C@H](C)c3cccc4ccccc34)c2cc1OC`, the Activity in [2] was 100%; in [3], 75%; in [4], 88%; in assay [5], 77%; in assay [6], 100%; in assay [7] it was 84%. For the same molecule, the Activity came to 66% in [8]; 60% in assay [9]; 94% in assay [10]; 100% in [11]; 97% in assay [12]; 89% in [13]. Moreover, the Activity in assay [14] came to 92%; in assay [15] it was 84%; in assay [16] it was 98%; in [17], 86%.
